Assay [1] relates to LH levels in the pituitary. Description: Depletion of LH levels in the pituitary after stimulation by exogenous GnRH. The settings on record: mutants, FIG. 15b. It counts as in vivo, mice. On the procedure:
(§1) Method: 25 ng of GnRH peptide was injected 4 times in 30 min intervals and the animals killed to collect blood and pituitary 30 min after last injection. All mice were killed between 11 am-1 pm.
(§2) Animal groups: 6 WT injected with just PBS (control), 6 WT injected with GnRH made in PBS and 6 HP injected with GnRH/PBS. All WT animals were staged and used at dioestrous (end of LH and FSH surge). All mice aged 2-4 months. This was repeated for LH and FSH measurements.
Measurement of the depletion of LH levels in the pituitary after stimulation by exogenous was measured. […] There were no deleterious effects of knocking out the gene in the mutants.

Assay [2] concerns FSH secretion from the pituitary. Description: Serum FSH assay after administration of exogenous GnRH. Type of assay: in vivo, mice. The protocol:
(§3) 3) Administration of Exogenous GnRH and Effects on FSH and LH Secretion from the Pituitary
as §1, §2
Serum FSH assay: There is a 1.9-fold increase in FSH in serum of WT injected with GnRH compared to those injected with just PBS.

For assay [3], the system named is LH secretion from the pituitary. Briefly: Serum LH assay after administration of exogenous GnRH. It counts as in vivo, mice. On the procedure: as §3, §1, §2
Serum LH assay: There is a 5-fold increase in LH in serum of WT injected with GnRH compared to those injected with just PBS.

Assay [4] deals with GPR54 (Homo sapiens, UniProt Q969F8). The settings on record: Lee et al 1999; Ohtaki et al 2001; cited from earlier work.
Sequence of GPR54 (Q969F8 whole entry, species assumed): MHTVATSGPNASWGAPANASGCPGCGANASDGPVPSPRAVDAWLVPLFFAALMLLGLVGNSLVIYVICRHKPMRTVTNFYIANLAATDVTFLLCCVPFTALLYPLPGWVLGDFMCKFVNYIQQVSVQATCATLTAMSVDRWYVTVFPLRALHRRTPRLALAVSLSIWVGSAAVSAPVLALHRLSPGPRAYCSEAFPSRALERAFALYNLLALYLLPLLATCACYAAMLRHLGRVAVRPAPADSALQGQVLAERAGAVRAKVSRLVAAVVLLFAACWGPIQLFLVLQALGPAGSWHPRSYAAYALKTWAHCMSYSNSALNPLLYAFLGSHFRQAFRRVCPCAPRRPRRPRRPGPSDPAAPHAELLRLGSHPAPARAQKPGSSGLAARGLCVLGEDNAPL
The test system of assay [5] is oxytocin secretion. The note with it: intravenous injection, female rat; Kotani et al 2001; cited from earlier work.
In assay [6] the test system is melanomas. The settings on record: mice with melanomas injected in footpads, administration by perfusion; Ohtaki et al 2001; cited from earlier work.
The subject of assay [7] is B16-L16 melanoma cells transfected with the GPR54 receptor. The settings on record: cited from earlier work.
The subject of assay [8] is ovaries (ovulation of mature oocytes). Briefly: Exogenous gonadotrophins: ovulation in GPR54 mutant females. Type of assay: in vivo, mice. The settings on record: 1000 iu PMS followed two days later by 1000 iu bHCG, n=6. The text has this:
This is consistent with the hypothesis that GPR54 receptors and ligands are acting at the level of the pituitary hypothalamic axis and not the end-organs.

Where [9] appears, read: HP (GPR54 knockout) mice injected with GnRH against WT injected with just PBS.

Read-outs that look alike come from different tables or passages of the source. Ends that are not written are not given here.

For “GnRH: gonadotropin-releasing hormone peptide injected in PBS (QHWSYGLRPG; ends and bridges not checked; UniProt P01148 24-33, looked up)”, the “LH levels in the pituitary after stimulation” value in assay [1] is recorded as “corresponding depletion of LH levels in the pituitary”. The entries for the “increase in FSH in serum” value in assay [2] (setting [9]) and in assay [2] (WT mice injected with GnRH (25 ng x 4 at 30 min intervals) compared to WT injected with just PBS) were 1.7 fold and 1.9 fold, respectively. Moreover, the “increase in LH in serum” value in assay [3] (setting [9]) and in assay [3] (WT mice injected with GnRH compared to WT injected with just PBS) was 5 fold throughout.

For the molecule “galanin-like peptide: galanin-like peptide reported not to activate GPR54 (APAHRGRGGWTLNSAGYLLGPVLHLPQMGDQDGKRETALEILDLWKAIDGLPYSHPPQPS; Galanin-like peptide; UniProt Q9UBC7 25-84, looked up)”, the “activation of GPR54” value in assay [4] is listed as “neither galanin nor galanin-like peptide activate GPR54”.

As to “kisspeptin-10: kisspeptin peptide injected intravenously in female rat (YNWNSFGLRF; ends and bridges not checked; UniProt Q15726 112-121, looked up)”, the oxytocin secretion result in assay [5] was “stimulates oxytocin secretion”.

As for “metastin: 54 amino acid kisspeptin, product of the Kiss-1 gene, natural ligand of GPR54 (GTSLSPPPESSGSPQQPGLSAPHSRQIPAPQGAVLVQREKDLPNYNWNSFGLRF; ends and bridges not checked; UniProt Q15726 68-121, looked up)”, the metastases result in assay [6] was “significantly decreased metastases”. In addition, the results for the cell motility entry in assay [7] (B16-L16 melanoma cells transfected with the GPR54 receptor) and in assay [7] (mock-transfected B16-L16 melanoma cells) were “inhibits motility” and “not in mock-transfected cells”, respectively.

B1: bHCG: beta human chorionic gonadotrophins (protein, UniProt P0DN86 21-165, looked up)
Choriogonadotropin subunit …: SKEPLRPRCRPINATLAVEKEGCPVCITVNTTICAGYCPTMTRVLQGVLPALPQVVCNYRDVRFESIRLPGCPRGVNPVVSYAVALSCQCALCRRSTTDCGGPKDHPLTCDDPRFQDSSSSKAPPPSLPSPSRLPGPSDTPILPQ
Regarding B1, the “mutant females with ovulation of mature oocytes” value in assay [8] is listed as 50%.

These data come from patent US20060015954A1, “GPR54 knock-out mammals and screening methods using them” (Paradigm Therapeutics Limited, priority 2002, published 2006).
